Measurements as given in ChEMBL document CHEMBL5154908, “Design, Synthesis, and Biological Characterization of Inhaled p38α/β MAPK Inhibitors for the Treatment of Lung Inflammatory Diseases” (J Med Chem, 2022).
In brackets after ≈: the same amount, converted by molar mass.

Key:
[1] = Selectivity index, ratio of drug concentration in Sprague-Dawley rat lung homogenate to IC50 for human p38alpha; assay type: tissue-based; conditions: tissue homogenate
[2] = Inhibition of LPS-stimulated TNFalpha release in human PBMC cells preincubated for 1 hr followed by LPS stimulation and measured after 18 hrs; assay type: functional, cell-based
[3] = biological target: T1, Mitogen-activated protein kinase 12 (Homo sapiens, UniProt P53778); experiment: Inhibition of recombinant human full length His-tagged p38gamma expressed in baculovirus expression system preincubated for 2 hrs followed by ATP addition and measured after 1 hr by Alpha screen assay
T1 sequence (P53778 whole entry): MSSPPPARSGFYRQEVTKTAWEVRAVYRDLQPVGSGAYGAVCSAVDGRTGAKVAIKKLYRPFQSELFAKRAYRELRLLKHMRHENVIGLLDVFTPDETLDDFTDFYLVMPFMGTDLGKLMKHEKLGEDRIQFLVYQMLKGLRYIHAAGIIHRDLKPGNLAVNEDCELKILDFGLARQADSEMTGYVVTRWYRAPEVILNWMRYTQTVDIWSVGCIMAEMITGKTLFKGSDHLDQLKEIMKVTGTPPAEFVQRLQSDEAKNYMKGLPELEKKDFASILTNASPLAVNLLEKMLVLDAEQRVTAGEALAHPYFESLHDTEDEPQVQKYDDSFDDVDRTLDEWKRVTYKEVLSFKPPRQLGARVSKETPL

[4] = Efflux ratio of permeability in human Caco-2 cells at 10 uM measured after 60 mins by LC-MS/MS analysis; assay type: ADME, cell-based
[5] = Permeability across apical to basolateral side in human Caco-2 cells at 10 uM measured after 60 mins by LC/MS/MS analysis; assay type: ADME, cell-based; conditions: read-out: permeability
[6] = Metabolic stability in rat liver microsomes assessed as half life at 1 uM preincubated for 10 mins followed by NADPH addition and measured after 30 mins by LC/MS/MS analysis; assay type: ADME, Microsome; conditions: time 40 min
[7] = Protein binding in rat lung homogenate at 10 uM incubated for 4 hrs by LC/MS/MS analysis; assay type: ADME, tissue-based; conditions: read-out: PB (converted)
[8] = biological target: T2, Mitogen-activated protein kinase 13 (Homo sapiens, UniProt O15264); experiment: Inhibition of recombinant human full length His-tagged p38delta expressed in baculovirus expression system preincubated for 2 hrs followed by ATP addition and measured after 1 hr by Alpha screen assay
T2 sequence (O15264 whole entry): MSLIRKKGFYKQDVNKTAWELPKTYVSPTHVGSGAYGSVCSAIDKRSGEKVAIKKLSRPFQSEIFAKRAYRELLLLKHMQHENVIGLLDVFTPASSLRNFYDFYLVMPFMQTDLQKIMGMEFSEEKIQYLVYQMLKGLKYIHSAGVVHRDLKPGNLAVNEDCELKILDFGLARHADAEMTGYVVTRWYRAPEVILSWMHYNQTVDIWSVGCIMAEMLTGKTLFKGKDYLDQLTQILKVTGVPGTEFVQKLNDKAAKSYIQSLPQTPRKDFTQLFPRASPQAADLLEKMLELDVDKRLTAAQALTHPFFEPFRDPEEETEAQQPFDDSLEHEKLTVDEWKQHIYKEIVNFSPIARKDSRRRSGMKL

Rattus norvegicus [9] = experiment: Antiinflammatory activity against LPS-induced Sprague-Dawley rat inflammatory model assessed as inhibition of neutrophil cells release in BALF at 0.3 mg/kg, IT measured after 12 hrs relative to control; assay type: functional
[10] = biological target: Mitogen-activated protein kinase 11 (Homo sapiens, UniProt Q15759); experiment: Inhibition of recombinant human full length His-tagged p38beta expressed in baculovirus expression system preincubated for 2 hrs followed by ATP addition and measured after 1 hr by Alpha screen assay
Mitogen-activated protein kinase 11, sequence (Q15759 whole entry): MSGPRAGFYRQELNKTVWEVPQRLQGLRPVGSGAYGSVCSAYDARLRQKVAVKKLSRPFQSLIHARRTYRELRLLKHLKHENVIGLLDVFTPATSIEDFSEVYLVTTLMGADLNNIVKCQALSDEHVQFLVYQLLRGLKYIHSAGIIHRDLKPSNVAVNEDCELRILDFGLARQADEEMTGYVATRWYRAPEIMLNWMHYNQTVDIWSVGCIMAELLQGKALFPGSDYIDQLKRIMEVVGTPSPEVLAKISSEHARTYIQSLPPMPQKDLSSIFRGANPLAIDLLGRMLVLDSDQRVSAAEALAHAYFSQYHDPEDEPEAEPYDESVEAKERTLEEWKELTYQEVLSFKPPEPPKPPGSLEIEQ

[11] = biological target: T3, Mitogen-activated protein kinase 14 (Homo sapiens, UniProt Q16539); experiment: Displacement of SKF-86002 from human inactivated p38alpha assessed as dissociation half life incubated for 2 hrs by fluorescence based analysis
T3 sequence (Q16539 whole entry): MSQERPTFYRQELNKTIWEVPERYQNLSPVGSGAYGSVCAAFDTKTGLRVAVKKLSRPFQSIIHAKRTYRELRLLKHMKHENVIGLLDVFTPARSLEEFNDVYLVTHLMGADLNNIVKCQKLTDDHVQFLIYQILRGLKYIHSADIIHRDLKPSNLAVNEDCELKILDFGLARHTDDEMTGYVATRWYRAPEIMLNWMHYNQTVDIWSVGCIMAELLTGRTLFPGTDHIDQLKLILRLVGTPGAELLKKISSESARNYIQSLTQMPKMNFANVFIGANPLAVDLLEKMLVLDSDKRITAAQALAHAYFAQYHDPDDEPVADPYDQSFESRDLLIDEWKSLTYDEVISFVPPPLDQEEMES

[12] = Solubility of the compound at >=1 mg/ml measured after 30 mins by HPLC analysis; assay type: physicochemical
[13] = Protein binding in rat plasma at 10 uM incubated for 4 hrs by LC/MS/MS analysis; assay type: ADME, cell-free; conditions: read-out: PPB (converted)
[14] = Drug uptake in Sprague-Dawley rat lung homogenate at 0.03 mg/kg, IT measured after 24 hrs by LC/MS/MS analysis; assay type: ADME, organism-based; conditions: in vivo, other
[15] = Drug uptake in Sprague-Dawley rat lung homogenate at 0.03 mg/kg, IT measured after 7 hrs by LC/MS/MS analysis; assay type: ADME, organism-based; conditions: in vivo, other
[16] = biological target: T3, Mitogen-activated protein kinase 14; experiment: Inhibition of human recombinant full length GST-tagged p38alpha expressed in Escherichia coli preincubated for 2 hrs followed by ATP addition and measured after 1 hr by Alpha screen assay
[17] = Cmax in Sprague-Dawley rat plasma at 0.03 mg/kg, IT measured after 0.8 hrs by LC/MS/MS analysis; assay type: ADME, organism-based; design: dose 0.03 mg/kg, time 0.8 hrs, route it
[18] = Drug concentration in Sprague-Dawley rat lung homogenate at 0.3 mg/kg, IT measured after 24 hrs by LC/MS/MS analysis; assay type: ADME, organism-based; conditions: read-out: Ct
[19] = Cmax in Sprague-Dawley rat lung homogenate at 0.03 mg/kg, IT measured after 0.8 hrs by LC/MS/MS analysis; assay type: ADME, organism-based; design: time 0.8 hrs, dose 0.03 mg/kg, route it
[20] = biological target: T4, Discoidin domain-containing receptor 2 (Homo sapiens) (UniProt Q16832); experiment: Inhibition of human DDR2 at 100 nM by KINOMEscan assay relative to control
T4 sequence (whole entry): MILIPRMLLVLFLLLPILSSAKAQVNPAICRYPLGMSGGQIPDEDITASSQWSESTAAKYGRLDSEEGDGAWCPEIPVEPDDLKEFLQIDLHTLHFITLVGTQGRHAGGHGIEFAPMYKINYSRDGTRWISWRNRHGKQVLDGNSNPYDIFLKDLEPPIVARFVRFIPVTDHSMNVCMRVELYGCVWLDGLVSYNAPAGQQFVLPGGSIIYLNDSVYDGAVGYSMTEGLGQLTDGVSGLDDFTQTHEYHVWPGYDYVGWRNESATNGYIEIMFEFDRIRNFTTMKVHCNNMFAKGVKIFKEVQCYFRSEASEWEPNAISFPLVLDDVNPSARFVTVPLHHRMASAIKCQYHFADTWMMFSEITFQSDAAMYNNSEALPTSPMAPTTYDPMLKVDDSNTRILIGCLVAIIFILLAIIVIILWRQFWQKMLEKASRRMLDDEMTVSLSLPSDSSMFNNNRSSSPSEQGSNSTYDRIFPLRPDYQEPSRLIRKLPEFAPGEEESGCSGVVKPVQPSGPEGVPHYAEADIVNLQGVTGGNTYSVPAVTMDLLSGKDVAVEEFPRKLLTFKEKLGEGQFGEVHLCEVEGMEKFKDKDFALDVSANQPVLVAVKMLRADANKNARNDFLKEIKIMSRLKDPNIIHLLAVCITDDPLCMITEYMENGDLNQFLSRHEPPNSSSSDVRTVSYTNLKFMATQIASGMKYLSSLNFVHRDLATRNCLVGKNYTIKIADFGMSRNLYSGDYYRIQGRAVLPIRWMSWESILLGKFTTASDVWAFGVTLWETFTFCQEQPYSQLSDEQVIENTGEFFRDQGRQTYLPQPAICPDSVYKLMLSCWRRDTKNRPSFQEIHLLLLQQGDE

[21] = biological target: T3, Mitogen-activated protein kinase 14; experiment: Binding affinity to biotinylated P38alpha assessed as dissociation half life by SPR analysis
[22] = biological target: TRAF2 and NCK-interacting protein kinase (Homo sapiens) (UniProt Q9UKE5); experiment: Inhibition of TNIK (unknown origin) at 100 nM by KINOMEscan assay relative to control
TRAF2 and NCK-interacting protein kinase (Homo sapiens), sequence (Q9UKE5 whole entry, looked up): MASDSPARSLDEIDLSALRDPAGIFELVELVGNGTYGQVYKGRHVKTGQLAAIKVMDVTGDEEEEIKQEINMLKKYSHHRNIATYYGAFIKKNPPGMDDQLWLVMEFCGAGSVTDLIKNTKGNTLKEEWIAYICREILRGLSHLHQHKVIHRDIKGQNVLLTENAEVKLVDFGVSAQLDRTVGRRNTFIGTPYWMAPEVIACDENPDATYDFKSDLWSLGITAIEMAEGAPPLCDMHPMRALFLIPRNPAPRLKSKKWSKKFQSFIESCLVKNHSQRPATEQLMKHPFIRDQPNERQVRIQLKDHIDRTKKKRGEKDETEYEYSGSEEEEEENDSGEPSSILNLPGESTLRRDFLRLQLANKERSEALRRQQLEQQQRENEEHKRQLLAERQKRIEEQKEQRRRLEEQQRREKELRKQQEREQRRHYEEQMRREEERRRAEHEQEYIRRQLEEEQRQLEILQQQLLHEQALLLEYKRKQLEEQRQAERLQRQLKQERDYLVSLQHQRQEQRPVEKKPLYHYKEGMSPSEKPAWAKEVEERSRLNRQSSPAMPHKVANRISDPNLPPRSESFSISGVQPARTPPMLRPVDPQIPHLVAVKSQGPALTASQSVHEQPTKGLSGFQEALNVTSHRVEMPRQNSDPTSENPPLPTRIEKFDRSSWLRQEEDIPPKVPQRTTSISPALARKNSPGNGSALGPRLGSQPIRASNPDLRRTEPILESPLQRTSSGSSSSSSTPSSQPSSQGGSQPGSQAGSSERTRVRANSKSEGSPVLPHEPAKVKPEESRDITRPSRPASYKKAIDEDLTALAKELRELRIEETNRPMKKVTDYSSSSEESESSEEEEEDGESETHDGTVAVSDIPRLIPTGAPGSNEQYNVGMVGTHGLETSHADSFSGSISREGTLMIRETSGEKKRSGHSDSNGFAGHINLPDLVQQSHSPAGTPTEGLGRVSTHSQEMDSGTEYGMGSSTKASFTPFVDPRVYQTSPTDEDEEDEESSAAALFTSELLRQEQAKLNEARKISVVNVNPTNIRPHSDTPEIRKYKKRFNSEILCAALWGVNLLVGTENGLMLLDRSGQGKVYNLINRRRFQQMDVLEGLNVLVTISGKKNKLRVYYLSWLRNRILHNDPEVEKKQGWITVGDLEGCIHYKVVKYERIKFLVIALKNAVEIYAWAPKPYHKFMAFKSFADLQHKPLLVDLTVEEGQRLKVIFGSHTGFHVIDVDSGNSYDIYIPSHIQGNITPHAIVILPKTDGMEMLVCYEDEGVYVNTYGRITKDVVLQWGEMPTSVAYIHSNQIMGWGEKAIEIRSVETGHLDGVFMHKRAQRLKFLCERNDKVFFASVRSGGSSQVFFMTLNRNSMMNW

[23] = biological target: Ephrin type-A receptor 4 (Homo sapiens) (UniProt P54764); experiment: Inhibition of EphA4 (unknown origin) at 1 uM relative to control
Ephrin type-A receptor 4 (Homo sapiens), sequence (P54764 whole entry, the tested form may be a part): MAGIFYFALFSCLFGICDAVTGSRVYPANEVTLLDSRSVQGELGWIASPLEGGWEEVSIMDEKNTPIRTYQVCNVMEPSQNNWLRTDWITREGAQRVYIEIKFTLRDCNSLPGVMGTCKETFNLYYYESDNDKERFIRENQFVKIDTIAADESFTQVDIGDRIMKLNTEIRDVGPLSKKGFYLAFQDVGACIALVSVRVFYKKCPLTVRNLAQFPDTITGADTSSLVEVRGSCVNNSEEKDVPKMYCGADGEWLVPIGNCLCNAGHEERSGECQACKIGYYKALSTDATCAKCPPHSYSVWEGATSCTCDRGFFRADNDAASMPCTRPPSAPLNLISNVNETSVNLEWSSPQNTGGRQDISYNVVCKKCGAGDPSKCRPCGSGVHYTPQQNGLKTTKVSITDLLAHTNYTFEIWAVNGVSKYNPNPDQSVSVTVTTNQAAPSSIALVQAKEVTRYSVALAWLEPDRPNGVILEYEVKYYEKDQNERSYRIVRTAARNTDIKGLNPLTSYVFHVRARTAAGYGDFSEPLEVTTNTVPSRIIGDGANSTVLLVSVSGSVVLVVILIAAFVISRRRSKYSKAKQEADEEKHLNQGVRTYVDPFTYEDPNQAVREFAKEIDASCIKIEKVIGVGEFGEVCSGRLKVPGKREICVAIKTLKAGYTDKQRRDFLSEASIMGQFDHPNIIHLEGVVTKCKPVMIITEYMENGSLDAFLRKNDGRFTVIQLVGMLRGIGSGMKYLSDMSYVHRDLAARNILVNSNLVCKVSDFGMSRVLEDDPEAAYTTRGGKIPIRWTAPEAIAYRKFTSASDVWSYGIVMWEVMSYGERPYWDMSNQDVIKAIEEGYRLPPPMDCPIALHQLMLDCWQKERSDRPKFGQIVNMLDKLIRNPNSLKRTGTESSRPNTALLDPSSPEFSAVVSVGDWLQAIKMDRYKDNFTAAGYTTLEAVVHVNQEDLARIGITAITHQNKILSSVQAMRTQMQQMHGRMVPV

[24] = biological target: Epithelial discoidin domain-containing receptor 1 (Homo sapiens) (UniProt Q08345); experiment: Inhibition of human DDR1 at 100 nM by KINOMEscan assay relative to control
Epithelial discoidin domain-containing receptor 1 (Homo sapiens), sequence (Q08345 whole entry, the tested form may be a part): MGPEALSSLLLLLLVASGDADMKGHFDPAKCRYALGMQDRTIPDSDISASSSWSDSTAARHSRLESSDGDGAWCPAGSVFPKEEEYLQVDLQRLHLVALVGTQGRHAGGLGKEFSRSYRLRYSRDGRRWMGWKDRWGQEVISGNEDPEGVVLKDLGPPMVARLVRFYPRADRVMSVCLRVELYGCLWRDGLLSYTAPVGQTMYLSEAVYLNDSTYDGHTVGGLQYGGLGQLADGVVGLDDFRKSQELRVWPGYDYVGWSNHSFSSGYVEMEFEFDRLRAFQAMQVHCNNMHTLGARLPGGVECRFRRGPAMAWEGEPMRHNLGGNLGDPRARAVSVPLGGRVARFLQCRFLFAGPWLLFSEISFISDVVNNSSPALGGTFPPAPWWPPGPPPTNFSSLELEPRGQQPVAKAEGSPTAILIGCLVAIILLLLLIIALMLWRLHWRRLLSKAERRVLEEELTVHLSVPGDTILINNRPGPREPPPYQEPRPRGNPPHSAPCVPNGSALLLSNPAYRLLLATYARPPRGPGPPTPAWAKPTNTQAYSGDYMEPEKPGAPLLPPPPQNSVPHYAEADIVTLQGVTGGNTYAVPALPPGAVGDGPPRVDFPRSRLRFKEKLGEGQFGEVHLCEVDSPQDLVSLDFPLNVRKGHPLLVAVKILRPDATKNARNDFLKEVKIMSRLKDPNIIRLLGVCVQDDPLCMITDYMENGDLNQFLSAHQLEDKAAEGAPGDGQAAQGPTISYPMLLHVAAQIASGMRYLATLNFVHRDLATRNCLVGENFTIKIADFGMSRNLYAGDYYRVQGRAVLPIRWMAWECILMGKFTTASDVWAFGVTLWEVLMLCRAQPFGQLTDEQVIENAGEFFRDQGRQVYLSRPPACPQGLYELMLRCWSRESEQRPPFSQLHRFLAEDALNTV

[25] = biological target: Citron Rho-interacting kinase (Homo sapiens) (UniProt O14578); experiment: Inhibition of human CIT at 100 nM by KINOMEscan assay relative to control
[26] = Cmax in Sprague-Dawley rat plasma at 0.3 mg/kg, IT measured after 0.8 hrs by LC/MS/MS analysis; assay type: ADME, organism-based; design: time 0.8 hrs, dose 0.3 mg/kg, route it
[27] = Cmax in Sprague-Dawley rat lung homogenate at 0.3 mg/kg, IT measured after 0.8 hrs by LC/MS/MS analysis; assay type: ADME, organism-based; design: time 0.8 hrs, dose 0.3 mg/kg, route it
Rattus norvegicus [28] = experiment: Antiinflammatory activity against LPS-induced Sprague-Dawley rat inflammatory model assessed as inhibition of neutrophil cells release in BALF at 0.1 mg/kg, IT preincubated for 2 hrs followed by LPS-stimulation and measured after 4 hrs relative to control; assay type: functional; design: scale not given: the % may be the effect or the level left; conditions: time 6 hrs

SMILES	Ratio [1]	IC50 [2]	IC50 [3]	efflux ratio at 1 h, 10 µM [4]	Papp A→B at 1 h, 10 µM [5]	half-life at 1 µM [6]	fraction unbound at 4 h, 10 µM [7]	IC50 [8]	inhibition in vivo at 0.3 mg/kg (Rattus norvegicus [9])	IC50 [10]	T1/2 [11]	solubility at 0.5 h [12]	fraction unbound at 4 h, 10 µM [13]	Drug uptake [14]	Drug uptake [15]	IC50 [16]	Cmax [17]	concentration at 24 h [18]	Cmax [19]	also measured
Cc1ccc(-n2nc(C(C)(C)C)cc2NC(=O)N[C@H]2CC[C@@H](Oc3ccc4nnc(N5CCCCC5)n4c3)c3ccccc32)cc1	40	0.3 nM	16 nM	> 2.5	2.5 ×10⁻⁶ cm/s	< 0.167 h	0.001	> 10000 nM	20%	0.4 nM	> 16 h	30 µg/mL (≈ 48.5 µM)	< 0.001	19%	21%	0.3 nM	60 nM	12100 nM	3180 nM	–
C[C@H]1CCCCN1c1nnc2ccc(O[C@@H]3CC[C@H](NC(=O)Nc4cc(C(C)(C)C)nn4-c4cccc(OCCN(C)C)c4)c4ccccc43)cn12	4.9	1 nM	2860 nM	> 2.5	1.4 ×10⁻⁶ cm/s	0.333 h	0.001	> 10000 nM	49%	1.3 nM	> 16 h	100 µg/mL (≈ 142 µM)	0.003	1.6%	8.4%	0.2 nM	10 nM	970 nM	2700 nM	–
C[C@H]1CCCCN1c1nnc2ccc(O[C@@H]3CC[C@H](NC(=O)Nc4cc(C(C)(C)C)nn4-c4cnn(CCN(C)C)c4)c4ccccc43)cn12 [listing 1 of 2 here]	–	–	–	–	–	–	–	–	–	–	> 16 h	–	–	–	–	–	–	–	–	inhibition [20]: > 50%; T1/2 [21]: 51 h; inhibition [22]: > 50%; inhibition [23]: 82%; inhibition [24]: > 50%; inhibition [25]: > 50%
C[C@H]1CCCCN1c1nnc2ccc(O[C@@H]3CC[C@H](NC(=O)Nc4cc(C(C)(C)C)nn4-c4cnn(CCN(C)C)c4)c4ccccc43)cn12 [listing 2 of 2 here]	70	1 nM	–	> 2.5	1.2 ×10⁻⁶ cm/s	< 0.0833 h	0.005	4100 nM	56%	–	–	800 µg/mL (≈ 1180 µM)	0.014	1.7%	7.2%	0.1 nM	–	1400 nM	–	Cmax [26]: 20 nM; Cmax [27]: 3040 nM
CC(C)(C)c1cc(NC(=O)NCc2ccccc2Sc2ccc3nnc(-c4ccccc4SCCO)n3c2)n(-c2ccc(O)c(Cl)c2)n1 [PF-03715455]	–	8 nM	–	–	–	–	–	–	–	–	–	–	–	–	–	–	–	–	–	Activity (Rattus norvegicus [28]): 14%
Cc1ccc(-n2nc(C(C)(C)C)cc2NC(=O)N[C@H]2CC[C@@H](Oc3ccc4nnc(N5CCC(CO)CC5)n4c3)c3ccccc32)cc1	> 300	1 nM	10 nM	> 2.5	3.3 ×10⁻⁶ cm/s	0.25 h	0.009	931 nM	19%	0.8 nM	> 16 h	10 µg/mL (≈ 15.4 µM)	0.001	23%	99%	0.3 nM	50 nM	10300 nM	5070 nM	–
